US11541132B2, “Radiolabeled compounds” (Hoffmann-La Roche Inc., priority 2017, dated 2023)
Read-outs that look alike come from different tables or passages of the source.

How the values were obtained:
[1] = target: T1, native Aβ aggregates in human AD brain tissue sections (Homo sapiens, UniProt P05067); assay: Aβ in vitro displacement assay (selectivity counterscreen, [3H]Example 3 autoradiography); assay type: binding; conditions: for inhibition at 1 µM: read-out: sel. counterscreen PCT_INHIB AD @ 1 μM (% displacement of [3H]Example 3)
T1 construct: native Aβ aggregates in human AD brain tissue samples; from tissue; host or cells: human AD brain tissue sections
T1 sequence (P05067 672-713 limits assumed): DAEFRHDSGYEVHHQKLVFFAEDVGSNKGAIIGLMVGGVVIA

[2] = target: T2, native aSyn aggregates in A30P transgenic mouse brain sections (Homo sapiens, UniProt P37840, A30P); assay: aSyn in vitro displacement assay ([3H]Example-3 autoradiography); assay type: binding, mutant human aSyn gene); conditions: for inhibition at 1 µM: read-out: PCT_INHIB A30P @ 1 μM (% displacement of [3H]Example-3)
T2 construct: from tissue; host or cells: brain sections (midbrain and pons as ROI) of A30P transgenic mice, line B6.D2-Tg(Thy1-SNCA*30P)31Pjk

[3] = 1 μM compound, 3 nM [3H]Example 3, human AD brain sections
[4] = 1 μM compound, 3 nM [3H]Example-3, A30P transgenic mouse brain sections

| Structure (SMILES) | inhibition at 1 µM [1, 3] [%] | inhibition at 1 µM [2, 4] [%] | also measured |
| --- | --- | --- | --- |
| CC(C)(C)[Si](C)(C)OC(CF)COc1ccc(C(=O)Nc2ccc(N3CCN(c4ccccn4)CC3)cc2)cc1 (racemic) [Example 124, rac-4-(2-((tert-Butyldimethylsilyl)oxy)-3-fluoropropoxy)-N-(4-(4-(pyridin-2-yl)piperazin-1-yl)phenyl)benzamide] |  |  | inhibition at 1 µM [1]: 91%; inhibition at 1 µM [2]: 82% |
| CC(C)(C)[Si](C)(C)OC(CF)COc1ccc(C(=O)Nc2ccc(N3CCN(c4nccs4)CC3)cc2)cc1 (racemic) [Example 126, rac-4-(2-((tert-Butyldimethylsilyl)oxy)-3-fluoropropoxy)-N-(4-(4-(thiazol-2-yl)piperazin-1-yl)phenyl)benzamide] |  |  | inhibition at 1 µM [1]: 89%; inhibition at 1 µM [2]: 82% |
| CC(C)(C)[Si](C)(C)OC(CF)COc1ccc(C(=O)Nc2ccc(N3CCN(c4ccc(C#N)cc4)CC3)cc2)cc1 (racemic) [Example 127, rac-4-(2-((tert-Butyldimethylsilyl)oxy)-3-fluoropropoxy)-N-(4-(4-(4-cyanophenyl)piperazin-1-yl)phenyl)benzamide] |  |  | inhibition at 1 µM [1]: 78%; inhibition at 1 µM [2]: 81% |
| CC(C)(C)[Si](C)(C)OC(CF)COc1ccc(C(=O)Nc2ccc(N3CCN(c4cc(C#N)ccn4)CC3)cc2)cc1 (racemic) [Example 128, rac-4-(2-((tert-Butyldimethylsilyl)oxy)-3-fluoropropoxy)-N-(4-(4-(4-cyanopyridin-2-yl)piperazin-1-yl)phenyl)benzamide] |  |  | inhibition at 1 µM [1]: 98%; inhibition at 1 µM [2]: 92% |
| N#Cc1ccc(N2CCN(c3ccc(NC(=O)c4ccc(OCC(O)CF)cc4)cc3)CC2)nc1 (racemic) [Example 129, rac-N-(4-(4-(5-Cyanopyridin-2-yl)piperazin-1-yl)phenyl)-4-(3-fluoro-2-hydroxypropoxy)benzamide] | 94 | 86 |  |
| O=C(Nc1ccc(N2CCN(c3nccs3)CC2)cc1)c1ccc(OCC(O)CF)cc1 (racemic) [Example 130, rac-4-(3-Fluoro-2-hydroxypropoxy)-N-(4-(4-(thiazol-2-yl)piperazin-1-yl)phenyl)benzamide] | 87 | 81 |  |
| N#Cc1ccc(N2CCN(c3ccc(NC(=O)c4ccc(OCC(O)CF)cc4)cc3)CC2)cc1 (racemic) [Example 131, rac-N-(4-(4-(4-Cyanophenyl)piperazin-1-yl)phenyl)-4-(3-fluoro-2-hydroxypropoxy)benzamide] | 90 | 88 |  |
| COc1ccc(C(=O)Nc2ccc(N3CCN(c4ccccn4)CC3)cc2)c(F)c1 [Example 1, 2-Fluoro-4-methoxy-N-(4-(4-(pyridin-2-yl)piperazin-1-yl)phenyl)benzamide] | 95 | 100 |  |
| COc1ccc(C(=O)Nc2ccc(N3CCN(c4ccccn4)CC3)cc2)cc1 [Example 3, 4-Methoxy-N-[4-(4-pyridin-2-ylpiperazin-1-yl)phenyl]benzamide] |  |  | inhibition at 3 µM ([1]; 3 μM compound, 3 nM [3H]Example 3, human AD brain sections, read-out: sel. counterscreen PCT_INHIB AD @ 3 μM): 100%; inhibition at 3 µM ([2]; 3 μM compound, 3 nM [3H]Example-3, A30P transgenic mouse brain sections, read-out: PCT_INHIB A30P @ 3 μM): 100% |
| COc1ccc(C(=O)Nc2ccc(N3CCN(c4ccc(C)cn4)CC3)cc2)cn1 [Example 4, 6-Methoxy-N-[4-[4-(5-methyl-2-pyridyl)piperazin-1-yl]phenyl]pyridine-3-carboxamide] | 91 | 89 |  |
| O=C(Nc1ccc(N2CCN(c3ccccn3)CC2)cc1)c1ccccc1F [Example 9, 2-Fluoro-N-(4-(4-(pyridin-2-yl)piperazin-1-yl)phenyl)benzamide] | 96 | 82 |  |
| Cc1ccc(C(=O)Nc2ccc(N3CCN(c4ccccn4)CC3)cc2)c(F)c1 [Example 10, 2-Fluoro-4-methyl-N-(4-(4-(pyridin-2-yl)piperazin-1-yl)phenyl)benzamide] | 81 | 83 |  |
| COc1ccc(C(=O)Nc2ccc(N3CCN(c4ccccn4)CC3)cc2)c(C)c1 [Example 11, 4-Methoxy-2-methyl-N-(4-(4-(pyridin-2-yl)piperazin-1-yl)phenyl)benzamide] | 86 | 87 |  |
| O=C(Nc1ccc(N2CCN(c3ccccn3)CC2)cc1)c1ccc(OCCOCCF)cc1 [Example 12, 4-(2-(2-fluoroethoxy)ethoxy)-N-(4-(4-(pyridin-2-yl)piperazin-1-yl)phenyl) benzamide] | 99 | 99 |  |
| COc1ccc(C(=O)Nc2ccc(N3CCN(c4nccs4)CC3)cc2)cc1 [Example 13, 4-Methoxy-N-[4-[4-(1,3-thiazol-2-yl)piperazin-1-yl]phenyl]benzamide] | 103 | 90 |  |
| O=C(Nc1ccc(N2CCN(c3ccccn3)CC2)cc1)c1ccn2ccnc2c1 [Example 16, N-(4-(4-(Pyridin-2-yl)piperazin-1-yl)phenyl)imidazo[1,2-a]pyridine-7-carboxamide] | 97 | 87 |  |
| COc1ccc(C(=O)Nc2ccc(N3CCN(c4ccccn4)CC3)nc2)c(C)c1 [Example 19, 4-Methoxy-2-methyl-N-[6-[4-(2-pyridyl)piperazin-1-yl]-3-pyridyl]benzamide] |  | 81 |  |
| Cc1ccc(C(=O)Nc2ccc(N3CCN(c4ccccn4)CC3)nc2)c(F)c1 [Example 23, 2-Fluoro-4-methyl-N-[6-[4-(2-pyridyl)piperazin-1-yl]-3-pyridyl]benzamide] |  | 82 |  |
| COc1ccc(C(=O)Nc2ccc(N3CCN(c4ccccn4)CC3)nc2)cc1 [Example 24, 4-Methoxy-N-[6-[4-(2-pyridyl)piperazin-1-yl]-3-pyridyl]benzamide] |  | 94 |  |
| Cc1ccc(C(=O)Nc2ccc(N3CCN(c4nccs4)CC3)cc2)nc1 [Example 25, 5-Methyl-N-[4-[4-(1,3-thiazol-2-yl)piperazin-1-yl]phenyl]pyridine-2-carboxamide] |  | 83 |  |
| Cc1ccc(C(=O)Nc2ccc(N3CCN(c4nccs4)CC3)cc2)cc1 [Example 27, 4-Methyl-N-[4-[4-(1,3-thiazol-2-yl)piperazin-1-yl]phenyl]benzamide] |  | 89 |  |
| CN1CCN(c2ccc(C(=O)Nc3ccc(N4CCN(c5nccs5)CC4)cc3)cc2)CC1 [Example 28, 4-(4-Methylpiperazin-1-yl)-N-[4-[4-(1,3-thiazol-2-yl)piperazin-1-yl]phenyl]benzamide] |  | 82 |  |

Continued, in another order:

| inhibition at 1 µM [1, 3] [%] | inhibition at 1 µM [2, 4] [%] | Structure (SMILES) | also measured |
| --- | --- | --- | --- |
| 92 | 82 | O=C(Nc1ccc(N2CCN(c3ccccn3)CC2)cc1)c1ccc(OCC(O)CF)cc1 (racemic) [Example 125, rac-4-(3-Fluoro-2-hydroxypropoxy)-N-(4-(4-(pyridin-2-yl)piperazin-1-yl)phenyl)benzamide] |  |
| 93 | 85 | O=C(Nc1ccc(N2CCN(c3ccccn3)CC2)cc1)c1ccc(O)cc1 [Example 2, 4-hydroxy-N-(4-(4-(pyridin-2-yl)piperazin-1-yl)phenyl)benzamide] |  |
| 102 | 99 | Cc1ccc(C(=O)Nc2ccc(N3CCN(c4ccccn4)CC3)cc2)cc1 [Example 5, 4-Methyl-N-(4-(4-(pyridin-2-yl)piperazin-1-yl)phenyl)benzamide] |  |
| 95 | 83 | CN1CCN(c2ccc(C(=O)Nc3ccc(N4CCN(c5ccccn5)CC4)cc3)cc2)CC1 [Example 6, 4-(4-Methylpiperazin-1-yl)-N-(4-(4-(pyridin-2-yl)piperazin-1-yl)phenyl)benzamide] |  |
| 108 | 90 | CN(C)c1ccc(C(=O)Nc2ccc(N3CCN(c4ccccn4)CC3)cc2)cc1 [Example 7, 4-(Dimethylamino)-N-(4-(4-(pyridin-2-yl)piperazin-1-yl)phenyl)benzamide] |  |
| 86 | 93 | O=C(Nc1ccc(N2CCN(c3ccccn3)CC2)cc1)c1ccc(N2CCOCC2)cc1 [Example 8, 4-Morpholino-N-(4-(4-(pyridin-2-yl)piperazin-1-yl)phenyl)benzamide] |  |
| 96 | 91 | O=C(Nc1ccc(N2CCN(c3ccccn3)CC2)cc1)c1ccc2c(c1)OCCO2 [Example 14, N-(4-(4-(Pyridin-2-yl)piperazin-1-yl)phenyl)-2,3-dihydrobenzo[b][1,4]dioxine-6-carboxamide] |  |
| 98 | 94 | O=C(Nc1ccc(N2CCN(c3ccccn3)CC2)cc1)c1ccc2c(c1)OCO2 [Example 15, N-(4-(4-(Pyridin-2-yl)piperazin-1-yl)phenyl)benzo[d][1,3]dioxole-5-carboxamide] |  |
| 98 | 87 | O=C(Nc1ccc(N2CCN(c3ccccn3)CC2)cc1)c1ccc2nccn2c1 [Example 17, N-(4-(4-(Pyridin-2-yl)piperazin-1-yl)phenyl)imidazo[1,2-a]pyridine-6-carboxamide] |  |
|  | 84 | CN1CCN(c2ccc(C(=O)Nc3ccc(N4CCN(c5ccccn5)CC4)nc3)cc2)CC1 [Example 22, 4-(4-Methylpiperazin-1-yl)-N-[6-[4-(2-pyridyl)piperazin-1-yl]-3-pyridyl]benzamide] |  |
|  | 93 | O=C(Nc1ccc(N2CCN(c3nccs3)CC2)cc1)c1ccc(N2CCOCC2)cc1 [Example 26, 4-Morpholin-4-yl-N-[4-[4-(1,3-thiazol-2-yl)piperazin-1-yl]phenyl]benzamide] |  |
